One experiment concerns MRSA strain 1. The format is cell-based, Staphylococcus aureus. The procedure: (§1) The antimicrobial activity of peptide γ2 was evaluated versus Pseudomonas aeruginosa ATCC 27853, Escherichia coli ATCC 13762 and Staphylococcus aureus ATCC 6538, and versus multidrug-resistant (MDR) clinical isolates of Methicillin-Resistant Staphylococcus aureus (MRSA), extended-spectrum β-lactamase (ESBL)-producing E. coli, P. aeruginosa and Acinetobacter baumannii complex. The isolates were identified by mass spectrometry using the MALDI (matrix-assisted laser desorption/ionisation) mass spectrometer and the biochemical phenotyping method in a VITEKR 2 bioMérieux system (bioMérieux Italia S.p.a., Bagno a Ripoli, Florence, Italy), according to the manufacturer's instructions. The antibiotic susceptibility profile was evaluated with the VITEKR 2 bioMérieux System. The microorganisms were cultured in broth and agar at 37° C. The media used were BD Brain Heart Infusion broth (BHI) (BD, Franklin Lakes, NJ, USA) and BHI agar (OXOID, Basingstoke, Hampshire, UK), BD Trypticase Soy agar with 5% sheep's blood and MacConkey agar (OXOID, Basingstoke, Hampshire, UK). The isolates were stored frozen at −80° C. in BHI broth supplemented with 10% (v/v) glycerol (Carlo Erba Reagents, Milan, Italy) until use, and the work cultures were activated in the respective broths at 37° C. for 15-18 h.
(§2) Assays of the antibacterial activity of peptide γ2, in both reduced and oxidised form, were conducted against P. aeruginosa ATCC 27853, E. coli ATCC 13762, S. aureus ATCC 6538 and MDR clinical isolates. The strains were cultured under aerobic conditions in BHI broth at 37° C. and incubated with peptide γ2 for 2 hours at 37° C. Various concentrations of peptide were used, ranging from 1 μM to 128 μM. Each test was conducted in triplicate with three independent cultures. The minimum inhibitory concentration (MIC) and the minimum bactericidal concentration (MBC) of the peptide were determined with a modified version of the Clinical and Laboratory Standards Institute broth microdilution assay, using a final inoculum concentration of 10^5 CFU/ml, as previously described (Scudiero O et al., Antimicrob Agents Chemother 2010; 54:2312-22; Scudiero O et al. Antimicrob Ag Chemother 2013; 57:1701-8).
(§3) The MIC is indicated by the concentration interval, which comprise the upper growth limit and the first concentration which could not support visible bacterial growth after incubation. The MBC was defined as the lowest concentration at which no viable colonies were observed. The peptide concentrations were 128.0, 64.0, 32.0, 16.0, 8.0, 4.0, 2.0 and 1 μM. For the time-kill studies against the ATCC and MDR strains, the bacteria were cultured in BHI broth until the late log growth phase at 37° C. The bacterial suspensions, containing about 10^6 CFU/ml (adjusted by the spectrophotometer to OD600 nm), were diluted 1:100 in PBS1× and then incubated at 37° C. with or without the peptide, selected at concentrations corresponding to 1, 2 and 4×MIC (as determined above). At baseline and 1, 2, 3 and 5 hours after incubation, a portion of each sample was harvested, diluted in series in PBS1× and seeded on BHI agar. The plates were incubated for […] at 37° C., and the viable bacteria count was conducted by the CFU method. All the data were expressed as mean±SD of three independent experiments.

In the next experiment the test system is MRSA strain 2. Type of experiment: cell-based, Staphylococcus aureus. As for the experimental part: as §1, §2, §3
Another experiment has as its system MRSA strain 3. Type of experiment: cell-based, Staphylococcus aureus. As for the experimental part:
as §1, §2, §3

The next experiment has as its system S. aureus ATCC 6538. The format is cell-based, Staphylococcus aureus. The procedure:
as §1, §2, §3

Another experiment deals with P. aeruginosa ATCC 27853. The format is cell-based, Pseudomonas aeruginosa. As for the experimental part:
as §1, §2, §3

The test system of experiment [1] is P. aeruginosa MDR strain 2. Type of experiment: cell-based, Pseudomonas aeruginosa. The procedure:
as §1, §2, §3

The subject of experiment [2] is P. aeruginosa MDR strain 1. The format is cell-based, Pseudomonas aeruginosa. As for the experimental part:
as §1, §2, §3

Experiment [3] deals with A. baumannii MDR strain 1. Type of experiment: cell-based, Acinetobacter baumannii complex. As for the experimental part:
as §1, §2, §3

The subject of experiment [4] is A. baumannii MDR strain 2. The format is cell-based, Acinetobacter baumannii complex. The procedure:
as §1, §2, §3

The subject of another experiment is E. coli ESBL strain 2. Type of experiment: cell-based, Escherichia coli. The procedure:
as §1, §2, §3

The test system of a further experiment is E. coli ATCC 13762. The format is cell-based, Escherichia coli. The procedure: as §1, §2, §3
For the next experiment, the system named is E. coli ESBL strain 1. The format is cell-based, Escherichia coli. The procedure: as §1, §2, §3
In another experiment the test system is A549 cells. Description: Cell migration assay in Boyden chambers. Type of experiment: cell-based. To be noted: 10 nM, 4 h. As for the experimental part:
(§4) Cell migration assays were conducted as previously described (Bifulco K et al., Mol Cancer There 2013; 2:1981-93), using Boyden chambers and polyvinylpyrrolidone-free polycarbonate filters with 8 μm pores inserted between a lower and upper compartment. Briefly, the cell suspension (1×10^5 viable cells/mL of serum-free medium) was seeded in each upper chamber. The lower chambers were filled with DMEM only, DMEM containing 10 nM N-formyl-methionyl-leucylphenylalanine peptide (fMLF), as positive control, or increasing peptide γ2 concentration. Incubation was conducted for 4 h at 37° C. in air humidified with 5% CO2. At the end of the assay, the cells on the lower surface of the filter were fixed with ethanol and stained with haematoxylin, and 10 random fields/filter were counted with a 200× magnification. The extent of cell migration was expressed as a percentage of baseline cell migration evaluated in the absence of chemo-attractants, taken as 100% (CTRL).

A further experiment concerns HUVEC endothelial cells. Description: Cell migration assay in Boyden chambers. The format is cell-based. Particulars: endothelial cells (HUVEC); 10 nM; 4 h. The procedure: as §4
The subject of the next experiment is HT-1080 cells. Description: Cell migration assay in Boyden chambers. The format is cell-based. Particulars: 10 nM, 4 h. As for the experimental part:
as §4

Consider two compounds from patent US20240417435A1, “DEFENSIN-DERIVED PEPTIDE WITH ANTIBACTERIAL ACTIVITY ALSO AGAINST MULTI-ANTIBIOTIC-RESISTANT BACTERIA” (priority 2021, published 2024).

Converted amounts (≈) assume the structure as drawn. Where two headings read alike, the source gives them in different places. Where a SMILES comes first, the peptide text is derived from it. Bridges are numbered along the chain shown (N, C = ends).

In general, MBC refers to the lowest tested concentration that kills the bacteria rather than only halting them. High values mean weaker bactericidal potency, low ones greater bactericidal potency. As a reminder, the MIC is the lowest concentration that inhibits growth of the organism. A lower MIC goes with inhibition by little substance. Consider `CC[C@H](C)[C@@H]1NC(=O)[C@H](CCC(N)=O)NC(=O)[C@H](CCCNC(=N)N)NC(=O)[C@H](CCCNC(=N)N)NC(=O)[C@H](CCCCN)NC(=O)[C@@H]2CCCN2C(=O)[C@H](CC(C)C)NC(=O)[C@@H](NC(C)=O)CSSC[C@@H](C(=O)N[C@@H](CCCCN)C(=O)N[C@@H](CCCCN)C(N)=O)NC(=O)[C@H](CO)NC(=O)[C@H](CCCCN)NC(=O)[C@H](CCCNC(=N)N)NC(=O)CNC(=O)[C@H](CCCNC(=N)N)NC(=O)[C@H]([C@@H](C)O)NC(=O)[C@H](CO)NC(=O)[C@H](CO)NC(=O)[C@H](CCCCN)NC(=O)CNC1=O` [Oxidised peptide γ2] (Ac-CLPKRRQIGKSSTRGRKSCKK-NH2; disulfide 1-19 (inferred)), for which the MBC is 2 µM (≈ 4.91 µg/mL) in the experiment on MRSA strain 1; 16 µM (≈ 39.3 µg/mL) in the experiment with MRSA strain 2; 32 µM (≈ 78.6 µg/mL) in the experiment with MRSA strain 3; 8 µM (≈ 19.7 µg/mL) against S. aureus ATCC 6538; 4 µM (≈ 9.83 µg/mL) in the experiment on P. aeruginosa ATCC 27853; 32 µM (≈ 78.6 µg/mL) in experiment [1]. Moreover, the MBC was determined as 32 µM (≈ 78.6 µg/mL) in experiment [2]; 128 µM (≈ 314 µg/mL) in experiment [3]; 4 µM (≈ 9.83 µg/mL) in [4] (MDR strain 2); 32 µM (≈ 78.6 µg/mL) against E. coli ESBL strain 2; 1 µM (≈ 2.46 µg/mL) against E. coli ATCC 13762; 2 µM (≈ 4.91 µg/mL) in the experiment on E. coli ESBL strain 1. For the same compound, the MIC with MRSA strain 1 turned out to be 1 µM (≈ 2.46 µg/mL); with MRSA strain 2, 2 µM (≈ 4.91 µg/mL); with MRSA strain 3, 2 µM (≈ 4.91 µg/mL); in experiment [1], 1 µM (≈ 2.46 µg/mL); in experiment [4] (MDR strain 2), 4 µM (≈ 9.83 µg/mL); in experiment [4] (multidrug-resistant clinical strain 2 of A. baumannii), 4 µM (≈ 9.83 µg/mL). Also, the MIC was determined as 1 µM (≈ 2.46 µg/mL) with E. coli ESBL strain 2, 1 µM (≈ 2.46 µg/mL) with E. coli ATCC 13762 and 2 µM (≈ 4.91 µg/mL) in the experiment on E. coli ESBL strain 1.
On to “N-formyl-methionyl-leucylphenylalanine peptide [fMLF, reference compound]”, for which the “cell migration, % of the baseline cell migration” value with A549 cells was found to be 153%; with HUVEC endothelial cells, 166%; in the experiment on HT-1080 cells it was 167%.
